Data: US9145354B2, “Pharmaceutical compounds” (priority 2011, dated 2015)
Where two headings read alike, the source gives them in different places.

Biological target: full length NS3/4a (Hepatitis C virus genotype 1b (isolate BK) (HCV), UniProt P26663)
Test: NS3 Protease Assay (Example A), FRET-based
Assay type: biochemical
Outline: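 Full-length NS3/4a, made in-house, with an NS4A/B-derived peptide substrate carrying QXL520 quencher and 5-FAMsp fluorophore. Buffer 50 mM Tris pH8, 20 mM DTT, 1% CHAPS, 10% glycerol, 5% DMSO. Fluorescence followed 30 min at room temperature; IC50 from initial rates of replicate curves.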

[1] = HCV NS3 protease assay, full length NS3/4a, read-out: Assay A IC50 (μM) average
[2] = read-out: IC50 against the protease activity of the full length NS3/4a
[3] = stated as IC50 less than 30 μM or at least 40% inhibition at a concentration of 100 μM, read-out: IC50 against the protease activity of the full length NS3/4a

Chain of full length NS3/4a (P26663 1027-1657): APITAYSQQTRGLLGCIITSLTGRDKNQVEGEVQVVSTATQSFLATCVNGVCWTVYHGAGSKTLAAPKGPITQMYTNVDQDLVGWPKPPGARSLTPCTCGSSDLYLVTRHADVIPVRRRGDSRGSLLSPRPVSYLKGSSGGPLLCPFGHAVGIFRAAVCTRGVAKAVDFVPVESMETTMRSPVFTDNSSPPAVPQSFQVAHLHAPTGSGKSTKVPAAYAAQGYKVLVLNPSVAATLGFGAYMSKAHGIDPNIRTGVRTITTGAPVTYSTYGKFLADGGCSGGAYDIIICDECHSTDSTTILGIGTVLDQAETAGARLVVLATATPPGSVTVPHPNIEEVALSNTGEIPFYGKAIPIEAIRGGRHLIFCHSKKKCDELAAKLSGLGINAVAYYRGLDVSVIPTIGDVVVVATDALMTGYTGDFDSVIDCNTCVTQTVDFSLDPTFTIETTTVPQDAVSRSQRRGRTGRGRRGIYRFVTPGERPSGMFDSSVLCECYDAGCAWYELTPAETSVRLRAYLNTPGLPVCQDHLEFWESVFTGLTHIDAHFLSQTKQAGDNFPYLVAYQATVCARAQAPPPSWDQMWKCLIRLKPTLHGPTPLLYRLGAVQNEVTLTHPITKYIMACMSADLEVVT

Row | Compound | IC50 [1] | IC50 [2] | also measured
1 | C[C@H](CC(N)=O)N[C@@H](c1ccc(Cl)c(C(=O)c2ccc3c(c2)OCC(=O)N3)c1F)C1CC1 [Example 271, (3R)-3-{[(R)-{4-chloro-2-fluoro-3-[(3-oxo-3,4-dihydro-2H-1,4-benzoxazin-7-yl)carbonyl]phenyl}(cyclopropyl)methyl]-amino}butanamide] | 1.1 µM | 1 to 5 µM | –
2 | CC(C)C[C@@H](N[C@H](C)CC(N)=O)c1ccc(Cl)c(C(=O)c2ccc(N)nc2)c1F [Example 272, (3R)-3-{[(1R)-1-{3-[(6-aminopyridin-3-yl)carbonyl]-4-chloro-2-fluorophenyl}-3-methylbutyl]amino} butanamide] | – | – | inhibition at 3 µM: 43%; IC50 [3]: < 30 µM
3 | CC[C@@H](N[C@H](C)CC(N)=O)c1ccc(OC)c(C(=O)c2ccc(N)c(C)c2)c1F [Example 274, (3R)-3-{[(1R)-1-{3-[(4-amino-3-methylphenyl)carbonyl]-2-fluoro-4-methoxyphenyl}propyl]amino}butanamide] | 0.56 µM | – | –
4 | CC[C@@H](N[C@H](C)CC(N)=O)c1ccc(OC)c(C(=O)c2cccc(C#N)c2)c1F [Example 277, (3R)-3-{[(1R)-1-{3-[(3-cyanophenyl)carbonyl]-2-fluoro-4-methoxyphenyl}propyl]amino}butanamide] | 0.73 µM | – | –
5 | C[C@H](CC(N)=O)N[C@H](CC1CC1)c1ccc(Cl)c(C(=O)c2ccc(N)nc2)c1F [Example 279, (3R)-3-{[(1R)-1-{3-[(6-aminopyridin-3-yl)carbonyl]-4-chloro-2-fluorophenyl}-2-cyclopropylethyl]amino}butanamide] | 0.39 µM | – | –
6 | C[C@@H](CC(N)=O)NCc1ccc(Cl)c(C(=O)c2ccccc2)c1F [Example 281, (3S)-3-{[(3-benzoyl-4-chloro-2-fluorophenyl)methyl]amino}butanamide] | 0.45 µM | – | –
7 | CC[C@@H](NC1CCOCC1)c1ccc(Cl)c(C(=O)c2cccnc2)c1F [Example 283, N-[(1R)-1-{4-chloro-2-fluoro-3-[(pyridin-3-yl)carbonyl]phenyl}propyl]oxan-4-amine] | – | – | IC50 [3]: < 30 µM
8 | CC[C@@H](NCC1CC1)c1ccc(Cl)c(C(=O)c2cccnc2)c1F [Example 284] | 2.7 µM | 1 to 5 µM | –
9 | CC[C@@H](NC(C)C)c1ccc(Cl)c(C(=O)c2cccnc2)c1F [Example 285, [(1R)-1-{4-chloro-2-fluoro-3-[(pyridin-3-yl)carbonyl]phenyl}propyl] (propan-2-yl)amine] | 2 µM | 1 to 5 µM | –
10 | CC[C@H](NC(=O)C1=CCNC1)c1ccc(Cl)c(C(=O)c2cccnc2)c1F [Example 286, N-[(1S)-1-{4-chloro-2-fluoro-3-[(pyridin-3-yl)carbonyl]phenyl}propyl]-2,5-dihydro-1H-pyrrole-3-carboxamide] | 0.13 µM | < 1 µM | –
11 | CC[C@H](NC(=O)C1=CCCNC1)c1ccc(Cl)c(C(=O)c2cccnc2)c1F [Example 287, N-[(1S)-1-{4-chloro-2-fluoro-3-[(pyridin-3-yl)carbonyl]phenyl}propyl]-1,2,5,6-tetrahydropyridine-3-carboxamide] | 0.14 µM | < 1 µM | –
12 | CC[C@@H](NCc1cnc[nH]1)c1ccc(Cl)c(C(=O)c2cccnc2)c1F [Example 288, [(1R)-1-{4-chloro-2-fluoro-3-[(pyridin-3-yl)carbonyl]phenyl}propyl](1H-imidazol-5-ylmethyl)amine] | 1.4 µM | 1 to 5 µM | –
13 | CC[C@@H](NC)c1ccc(Cl)c(C(=O)c2cccnc2)c1F [Example 289, [(1R)-1-{4-chloro-2-fluoro-3-[(pyridin-3-yl)carbonyl]phenyl}propyl](methyl)amine] | 2.4 µM | 1 to 5 µM | –
14 | CC[C@@H](NCCF)c1ccc(Cl)c(C(=O)c2cccnc2)c1F [Example 290, [(1R)-1-{4-chloro-2-fluoro-3-[(pyridin-3-yl)carbonyl]phenyl}propyl] (2-fluoroethyl)amine] | 14 µM | – | IC50 [3]: < 30 µM
15 | CC[C@@H](NC(=O)C1=CCNC1)c1ccc(Cl)c(C(=O)c2cccnc2)c1F [Example 291, N-[(1R)-1-{4-chloro-2-fluoro-3-[(pyridin-3-yl)carbonyl]phenyl}propyl]-2,5-dihydro-1H-pyrrole-3-carboxamide] | – | 1 to 5 µM | inhibition at 3 µM: 51%
16 | CC[C@@H](N[C@@H]1CCOC1)c1ccc(Cl)c(C(=O)c2cccnc2)c1F [Example 292, (3R)-N-[(1R)-1-{4-chloro-2-fluoro-3-[(pyridin-3-yl)carbonyl]phenyl}propyl] oxolan-3-amine] | – | – | inhibition at 10 µM: 4%

Row | Compound | IC50 [1] | IC50 [2] | also measured
17 | CC[C@@H](N[C@H]1CCOC1)c1ccc(Cl)c(C(=O)c2cccnc2)c1F [Example 293, (3S)-N-[(1R)-1-{4-chloro-2-fluoro-3-[(pyridin-3-yl)carbonyl]phenyl}propyl] oxolan-3-amine] | – | – | inhibition at 10 µM: 11%
18 | CC[C@H](NC(=O)C1CCCNC1)c1ccc(Cl)c(C(=O)c2cccnc2)c1F (stereo partly drawn) [Example 294, N-[(1S)-1-{4-chloro-2-fluoro-3-[(pyridin-3-yl)carbonyl]phenyl}propyl]piperidine-3-carboxamide] | 0.41 µM | < 1 µM | –
19 | CC[C@H](NC(=O)C1CCNC1)c1ccc(Cl)c(C(=O)c2cccnc2)c1F (stereo partly drawn) [Example 295, N-[(1S)-1-{4-chloro-2-fluoro-3-[(pyridin-3-yl)carbonyl]phenyl}propyl] pyrrolidine-3-carboxamide] | – | – | inhibition at 3 µM: 38%
20 | CC[C@@H](NC1CC1)c1ccc(Cl)c(C(=O)c2cccnc2)c1F [Example 296, N-[(1R)-1-{4-chloro-2-fluoro-3-[(pyridin-3-yl)carbonyl]phenyl}-propyl]cyclopropanamine] | 13 µM | – | IC50 [3]: < 30 µM
21 | CC[C@H](NC(=O)CCN)c1ccc(Cl)c(C(=O)c2cccnc2)c1F [Example 297, 3-amino-N-[(1S)-1-{4-chloro-2-fluoro-3-[(pyridin-3-yl)carbonyl]phenyl}propyl] propanamide] | 0.15 µM | < 1 µM | –
22 | CC[C@H](NC(=O)C[C@@H](N)C(C)C)c1ccc(Cl)c(C(=O)c2cccnc2)c1F [Example 298, (3R)-3-amino-N-[(1S)-1-{4-chloro-2-fluoro-3-[(pyridin-3-yl)carbonyl]phenyl}propyl]-4-methylpentanamide] | 0.064 µM | < 1 µM | –
23 | CC[C@@H](NCc1cn[nH]c1)c1ccc(Cl)c(C(=O)c2cccnc2)c1F [Example 299, [(1R)-1-{4-chloro-2-fluoro-3-[(pyridin-3-yl)carbonyl]phenyl}propyl] (1H-pyrazol-4-ylmethyl)amine] | – | – | inhibition at 10 µM: 32%
24 | CC[C@@H](N[C@H](C)c1cn[nH]c1)c1ccc(Cl)c(C(=O)c2cccnc2)c1F [Example 300, [(1R)-1-{4-chloro-2-fluoro-3-[(pyridin-3-yl)carbonyl]phenyl}propyl] [(1R)-1-(1H-pyrazol-4-yl)ethyl]amine] | – | – | inhibition at 30 µM (@ 30 uM): 48%; IC50 [3]: < 30 µM
25 | CC[C@@H](N[C@@H](C)c1cn[nH]c1)c1ccc(Cl)c(C(=O)c2cccnc2)c1F [Example 301, [(1R)-1-{4-chloro-2-fluoro-3-[(pyridin-3-yl)carbonyl]phenyl}propyl] [(1S)-1-(1H-pyrazol-4-yl)ethyl]amine] | – | – | inhibition at 10 µM: 65%; IC50 [3]: < 30 µM
26 | CC[C@H](NC(=N)N)c1ccc(Cl)c(C(=O)c2cccnc2)c1F [Example 302] | 1.3 µM | 1 to 5 µM | –
27 | CC[C@H](NC(=O)CCN)c1ccc(Cl)c(C(=O)c2ccc(N)nc2)c1F [Example 303] | 0.065 µM | < 1 µM | –
28 | CC[C@@H](N[C@H](C)c1cnc[nH]1)c1ccc(Cl)c(C(=O)c2cccnc2)c1F [Example 304, [(1R)-1-{4-chloro-2-fluoro-3-[(pyridin-3-yl)carbonyl]phenyl}propyl] [(1R)-1-(1H-imidazol-5-yl)ethyl]amine] | 4.7 µM | 1 to 5 µM | –
29 | CC[C@@H](N[C@@H](C)c1cnc[nH]1)c1ccc(Cl)c(C(=O)c2cccnc2)c1F [Example 305, [(1R)-1-{4-chloro-2-fluoro-3-[(pyridin-3-yl)carbonyl]phenyl}propyl] [(1S)-1-(1H-imidazol-5-yl)ethyl]amine] | 1.1 µM | 1 to 5 µM | –
30 | CC[C@@H](NCCn1cccn1)c1ccc(Cl)c(C(=O)c2cccnc2)c1F [Example 306, [(1R)-1-{4-chloro-2-fluoro-3-[(pyridin-3-yl)carbonyl]phenyl}propyl] [2-(1H-pyrazol-1-yl)ethyl] amine] | – | – | inhibition at 100 µM (@ 100 uM): 59%; IC50 [3]: < 30 µM
31 | CC[C@@H](NC)c1ccc(Cl)c(C(=O)c2ccc(N)nc2)c1F [Example 307, 5-({6-chloro-2-fluoro-3-[(1R)-1-(methylamino)propyl]-phenyl}carbonyl)pyridin-2-amine] | 0.34 µM | < 1 µM | –
32 | (3S)-3-{[(1R)-1-{3-[(6- aminopyridazin-3- yl)carbonyl]-4-chloro-2- fluorophenyl}propyl]amino} butanamide [Example 232] | 0.99 µM | < 1 µM | –
